# Reference: ChEMBL document CHEMBL5634077, “Recent advances in 1,2,3- and 1,2,4-triazole hybrids as antimicrobials and their SAR: A critical review” (2023)
# Tests used:
# Format in all cases: functional
# [1] = tested on: Staphylococcus aureus; experiment: Antibacterial activity against Staphylococcus aureus ATCC 6538P
# [2] = tested on: Pseudomonas aeruginosa; experiment: Antibacterial activity against Pseudomonas aeruginosa ATCC 9027
# [3] = tested on: Escherichia coli; experiment: Antibacterial activity against Escherichia coli ATCC 8739
# [4] = tested on: Proteus vulgaris; experiment: Antibacterial activity against Proteus vulgaris NCIM-2027 by CLSI based microdilution assay
# [5] = tested on: Staphylococcus aureus; experiment: Antibacterial activity against Staphylococcus aureus NCIM-2079 by CLSI based microdilution assay
# [6] = tested on: Bacillus subtilis; experiment: Antibacterial activity against Bacillus subtilis NCIM-2063 by CLSI based microdilution assay
# [7] = tested on: Escherichia coli; experiment: Antibacterial activity against Escherichia coli NCIM-2065 by CLSI based microdilution assay
# [8] = tested on: Bacillus cereus; experiment: Antibacterial activity against Bacillus cereus NCIM-2156 by CLSI based microdilution assay
# [9] = tested on: Escherichia coli; experiment: Antibacterial activity against Escherichia coli assessed as reduction in bacterial growth by broth microdilution method
# [10] = tested on: Bacillus subtilis; experiment: Antibacterial activity against Bacillus subtilis assessed as reduction in bacterial growth
# [11] = tested on: Escherichia coli; experiment: Antibacterial activity against Escherichia coli assessed as reduction in bacterial growth
# [12] = tested on: Pseudomonas aeruginosa; experiment: Antibacterial activity against Pseudomonas aeruginosa assessed as reduction in bacterial growth
# [13] = tested on: Bacillus cereus; experiment: Antibacterial activity against Bacillus cereus NCIM 2156 assessed as reduction in bacterial growth incubated for 18 to 24 hrs by broth microdilution method; conditions: time 18-24 hrs
# [14] = tested on: Bacillus subtilis; experiment: Antibacterial activity against Bacillus subtilis NCIM 2063 assessed as reduction in bacterial growth incubated for 18 to 24 hrs by broth microdilution method; conditions: time 18-24 hrs
# [15] = tested on: Proteus mirabilis; experiment: Antibacterial activity against Proteus mirabilis NCIM 2241 assessed as reduction in bacterial growth incubated for 18 to 24 hrs by broth microdilution method; conditions: time 18-24 hrs
# [16] = tested on: Pseudomonas aeruginosa; experiment: Antibacterial activity against Pseudomonas aeruginosa NCIM 2036 assessed as reduction in bacterial growth incubated for 18 to 24 hrs by broth microdilution method; conditions: time 18-24 hrs
# [17] = tested on: Proteus vulgaris; experiment: Antibacterial activity against Proteus vulgaris NCIM 2027 assessed as reduction in bacterial growth incubated for 18 to 24 hrs by broth microdilution method; conditions: time 18-24 hrs
# [18] = tested on: Escherichia coli; experiment: Antibacterial activity against Escherichia coli NCIM 2065 assessed as reduction in bacterial growth incubated for 18 to 24 hrs by broth microdilution method; conditions: time 18-24 hrs
# [19] = tested on: Staphylococcus aureus; experiment: Antibacterial activity against Staphylococcus aureus NCIM 2079 assessed as reduction in bacterial growth incubated for 18 to 24 hrs by broth microdilution method; conditions: time 18-24 hrs
# [20] = tested on: Micrococcus luteus; experiment: Antibacterial activity against Micrococcus luteus assessed as reduction in microbial growth
# [21] = tested on: Proteus vulgaris; experiment: Antibacterial activity against Proteus vulgaris assessed as reduction in bacterial growth
# [22] = tested on: Pichia kudriavzevii; experiment: Antifungal activity against Candida krusei IFRC 1012 assessed as reduction in fungal growth by CLSI based micro-dilution asssay
# [23] = tested on: Candida tropicalis; experiment: Antifungal activity against Candida tropicalis IFRC 1057 assessed as reduction in fungal growth by CLSI based micro-dilution asssay
# [24] = tested on: Candida albicans; experiment: Antifungal activity against Candida albicans IFRC 194 assessed as reduction in fungal growth by CLSI based micro-dilution asssay
# [25] = tested on: Nakaseomyces glabratus; experiment: Antifungal activity against Candida glabrata assessed as reduction in fungal growth by CLSI based micro-dilution asssay
# [26] = tested on: Candida parapsilosis; experiment: Antifungal activity against Candida parapsilosis IFRC 1269 assessed as reduction in fungal growth by CLSI based micro-dilution asssay; conditions: Lodderomyces parapsilosis
structure (smiles),measurement,setting,value
CCn1cc(C(=O)O)c(=O)c2cc(F)c(N3CCN(Cn4nc(-c5ccncc5)n(-c5ccc(OC)cc5)c4=S)CC3)cc21,MIC,[1],0.125 µg/mL
same,MIC,[2],0.125 µg/mL
same,MIC,[3],0.125 µg/mL
O=C(CNN1C(=O)CSC1c1ccc(-c2ccc(F)cc2)cc1)NN1C(c2ccncc2)=NNC1S (configuration not stated),MIC,[4],3.12 µg/mL
same,MIC,[5],3.12 µg/mL
same,MIC,[6],3.12 µg/mL
same,MIC,[7],3.12 µg/mL
same,MIC,[8],3.12 µg/mL
Cc1ccc(NC(=O)Cn2cc(Cn3cc(CC(NC(=O)C(C)c4ccc(CC(C)C)cc4)C(=O)NC(Cc4ccccc4)C(N)=O)c4ccccc43)nn2)c(C)c1 (configuration not stated),MIC,[9],25 µg/mL
CCCCCCCCCCCCCCCc1nnc(S)n1/N=C\c1cc(OC)c(OC)c(OC)c1,MIC,[10],24.7 µg/mL
same,MIC,[11],24.7 µg/mL
same,MIC,[12],12.3 µg/mL
Nn1c(NCCCNc2ccnc3cc(Cl)ccc23)nn(CN2CCNCC2)c1=S,MIC,[13],3.12 µg/mL
same,MIC,[14],12.5 µg/mL
same,MIC,[15],12.5 µg/mL
same,MIC,[16],25 µg/mL
same,MIC,[17],12.5 µg/mL
same,MIC,[18],6.25 µg/mL
same,MIC,[19],3.12 µg/mL
O=C(CNN1C(=O)CSC1c1ccc(-c2ccc(F)cc2)cc1)NN1C(c2ccc([N+](=O)[O-])cc2)=NNC1S (configuration not stated),MIC,[4],3.12 µg/mL
same,MIC,[5],3.12 µg/mL
same,MIC,[6],3.12 µg/mL
same,MIC,[7],3.12 µg/mL
same,MIC,[8],3.12 µg/mL
COc1ccc(-c2cc(-c3nnn(-c4ccccc4)c3C)no2)cc1,MIC,[20],1.56 µg/mL
same,MIC,[10],1.56 µg/mL
same,MIC,[21],1.56 µg/mL
OC(CSC(=S)N1CCN(Cc2ccc(Cl)cc2)CC1)(Cn1cncn1)c1ccc(F)cc1F (configuration not stated),MIC,[22],0.063 µg/mL
same,MIC,[23],0.063 µg/mL
same,MIC,[24],0.063 µg/mL
same,MIC,[25],0.063 µg/mL
same,MIC,[26],0.063 µg/mL
